Measurements as given in patent US11717580B2, “Cyclodextrin-linked polyvalent ligands for complexation of metal ions” (UTI LIMITED PARTNERSHIP, priority 2018, dated 2023).
Like-named read-outs stand apart in the source and are kept apart here.

How the values were obtained:
[1] = cited from earlier work
[2] = test system: HepG2 cells; assay: In vitro cytotoxicity MTT assay, HepG2; format: cell-based; settings: concentrations higher than 1 mM
[3] = Potentiometric titrations of compound 5 (protonation constants); format: physicochemical
Experimental: T=298K, [L]=0.0625-1 μmol, [extra-HCl]=0-37.3 μmol in NMe4Cl (0.1 M); total initial volume: 4 mL; burette: [NMe4OH]=0.05 M.
Potentiometric titrations were performed to study the deprotonation of compound 5 (FIG. 6). The initial solution of compound 5 alone has a pH of ˜8.4; this value correlates well with extensive deprotonation observed in ATR-FTIR spectrum. Therefore, a solution of HCl in trimethylammonium chloride (0.1 M) was gradually added to the solution to obtain a series of solutions with varied HCl/5 ratios (0→597), while maintaining the total volume constant. To each prepared solution, a titrant solution of tetramethylammonium hydroxide (0.05 M) was added while the pH of the solution recorded; this enabled preparation of a series of titration curves (FIG. 7).
The protonation constant βh for the following equilibrium is defined by equation 1, where L represents the fully deprotonated form (L^14−) of compound 5 (LH14). H is the proton (charges are omitted).
[formula] As dissociation constants Ka are commonly defined by:
[formula] [formula] [formula] it is evident that Ka=log βh−log βh-1 (equation 3)
Table 1 reports all protonation constants determined by titration curve refinement and the corresponding acidity constants. All pKa values were ascribed to successive deprotonation of the carboxylic acids, followed by ammonium functions.

[4] = test system: HeLa cells; assay: In vitro cytotoxicity MTT assay, HeLa; format: cell-based; settings: concentrations higher than 1 mM
[5] = Potentiometric titrations of compound 5 with Gd(III) (stability constants and speciation of Gd(III) complexes); format: binding
Description: Considering the collection of results obtained for the Gd(III)-compound 5, the best chemical model which fits the data corresponds to: (1) mononuclear GdL species for Gd:L ratio lower than 1, (2) binuclear species Gd2L for Gd:L ratio higher than 1 or (3) trinuclear species Gd3L for Gd:L ratio higher than 2.
The complexation of compound 5 with Gd(III) was studied by potentiometric titrations. While maintaining the amount of compound 5 (0.5 μmol) and HCl (9.95 μmol) constant within the cell, a solution of GdCl3 was then added to reach a specified ratio. This solution was then titrated with tetramethylammonium hydroxide (NMe4OH). It was noted that with the solution containing the highest Gd:L ratios, the addition of same amount of base caused a slower increase of pH (FIG. 12A). This could be explained by the displacement of protons from the protonated groups during Gd(III) complexation, thus acidifying the medium.
The stability constants of the Gd(III) complexes are expressed by the general formula:
[formula] with M being the metal ion, L the ligand, and H the proton (the charges are omitted), and dissociation constant Kmlh can be defined similarly to the case of free ligand as:
[formula] [formula] [formula] Analogously, pKmlh=log βmlh−log βmlh-1 (equation 6)
The stability constants of the Gd(III) complexes are reported in the Table 2 and distribution curves given in FIGS. 12B, 12C and 12D, respectively for 1:1, 2:1 and 3:1 Gd(III):compound 5 ratios.

[6] = 12 MHz; cited from earlier work

Compound: CC[N+](CC)(CC)CC [triethylammonium]
- pKa [1]: ~10.75

Compound: O=C(O)CN(CC(=O)O)Cc1cn(C[C@H]2O[C@@H]3O[C@H]4[C@H](O)[C@@H](O)[C@@H](O[C@H]5[C@H](O)[C@@H](O)[C@@H](O[C@H]6[C@H](O)[C@@H](O)[C@@H](O[C@H]7[C@H](O)[C@@H](O)[C@@H](O[C@H]8[C@H](O)[C@@H](O)[C@@H](O[C@H]9[C@H](O)[C@@H](O)[C@@H](O[C@H]2[C@H](O)[C@H]3O)O[C@@H]9Cn2cc(CN(CC(=O)O)CC(=O)O)nn2)O[C@@H]8Cn2cc(CN(CC(=O)O)CC(=O)O)nn2)O[C@@H]7Cn2cc(CN(CC(=O)O)CC(=O)O)nn2)O[C@@H]6Cn2cc(CN(CC(=O)O)CC(=O)O)nn2)O[C@@H]5Cn2cc(CN(CC(=O)O)CC(=O)O)nn2)O[C@@H]4Cn2cc(CN(CC(=O)O)CC(=O)O)nn2)nn1 [Compound 5]
- cytotoxic effect (inhibition) [2]: 20-40%
- pH of initial solution ([3]; compound 5 alone): ~8.4
- log βLHh ([3]; species LH): 8.80
- pKa ([3]; species LH): 8.80
- log βLHh ([3]; species LH2): 17.77
- pKa ([3]; species LH2): 9.08
- log βLHh ([3]; species LH3): 26.44
- pKa ([3]; species LH3): 8.56
- log βLHh ([3]; species LH4): 34.51
- pKa ([3]; species LH4): 8.07
- log βLHh ([3]; species LH5): 42.44
- pKa ([3]; species LH5): ~7.93
- log βLHh ([3]; species LH6): 50.03
- pKa ([3]; species LH6): ~7.59
- log βLHh ([3]; species LH7): 56.23
- pKa ([3]; species LH7): 6.20
- log βLHh ([3]; species LH8): 61.22
- pKa ([3]; species LH8): 4.99
- log βLHh ([3]; species LH9): 64.85
- pKa ([3]; species LH9): 3.63
- log βLHh ([3]; species LH10): 67.42
- pKa ([3]; species LH10): 2.57
- pKa ([3]; species LH11-LH21): <2
- cytotoxic effect (inhibition) [4]: 20-40%
- log βMLHh ([5]; dinuclear species Gd2L (MLH 210)): 36.28
- log βGd (210)−log βGd (110) ([5]; introduction of second Gd(III) cation): 11.19
- log βGd (310)−log βGd (210) ([5]; introduction of third Gd(III) cation): 7.63

Compound: CO[C@@H]1[C@@H](OC)[C@H]2O[C@H]3[C@H](OC)[C@@H](OC)[C@@H](O[C@H]4[C@H](OC)[C@@H](OC)[C@@H](O[C@H]5[C@H](OC)[C@@H](OC)[C@@H](O[C@H]6[C@H](OC)[C@@H](OC)[C@@H](O[C@H]7[C@H](OC)[C@@H](OC)[C@@H](O[C@H]8[C@H](OC)[C@@H](OC)[C@@H](O[C@@H]1[C@@H](CN(CC(=O)O)CC(=O)O)O2)O[C@@H]8CN(CC(=O)O)CC(=O)O)O[C@@H]7CN(CC(=O)O)CC(=O)O)O[C@@H]6CN(CC(=O)O)CC(=O)O)O[C@@H]5CN(CC(=O)O)CC(=O)O)O[C@@H]4CN(CC(=O)O)CC(=O)O)O[C@@H]3CN(CC(=O)O)CC(=O)O [compound 3]
- relaxivity [6]: 8.8 mM⁻¹ s⁻¹
